Measured values published in patent US6613718B2, “Aryl ether derivatives and processes for their preparation and herbicidal and desiccant compositions containing them” (Ishihara Sangyo Kaisha, Ltd., priority 2001, dated 2003).

How the values were obtained:
Assay type in all cases: in vivo
Conditions in all cases: 14 days after application
[1] = system: barnyardgrass (Echinochloa crus-galli, ECHCG); experiment: Pre-emerge greenhouse herbicide activity screening, phytotoxicity rating
Summary of the method: (§1)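 Track-sprayer application, nozzle 40-45 cm above soil or canopy; compound in acetone at 15 to 1000 g ai/ha. Visual 0–100 rating at 14 days after treatment.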

[2] = system: common ragweed (Ambrosia artemisiifolia L., AMBEL); experiment: as above
Summary of the method: as §1

[3] = system: green foxtail (Setaria viridis, SETVI); experiment: as above
Summary of the method: as §1

[4] = system: ivyleaf morningglory (Ipomoea hederacea, IPOHE); experiment: as above
Summary of the method: as §1

[5] = system: johnsongrass (Sorghum halepense, SORHA); experiment: as above
Summary of the method: as §1

[6] = system: lambsquarters (Chenopodium album, CHEAL); experiment: as above
Summary of the method: as §1

[7] = system: large crabgrass (Digitaria sanguinalis, DIGSA); experiment: as above
Summary of the method: as §1

[8] = system: redroot pigweed (Amaranthus retroflexus, AMARE); experiment: as above
Summary of the method: as §1

[9] = system: sicklepod (Cassia obtusifolia, CASOB); experiment: as above
Summary of the method: as §1

[10] = system: velvetleaf (Abutilon theophrasti, ABUTH); experiment: as above
Summary of the method: as §1

[11] = system: field corn (Zea mays L., var. Dekalb 535, CORN); experiment: Pre-emerge greenhouse screening, crop safety (phytotoxicity rating)
Summary of the method: as §1

[12] = system: soybean (Glycine max L., var. Pella 86, SOY); experiment: as above
Summary of the method: as §1

[13] = system: upland rice (Oryza sp., var.Tebonnet, RICE); experiment: as above
Summary of the method: as §1

[14] = system: barnyardgrass (Echinochloa crus-galli, ECHCG); experiment: Post-emerge greenhouse herbicide activity screening, phytotoxicity rating
Summary of the method: as §1

[15] = system: common ragweed (Ambrosia artemisiifolia L., AMBEL); experiment: as above
Summary of the method: as §1

[16] = system: green foxtail (Setaria viridis, SETVI); experiment: as above
Summary of the method: as §1

[17] = system: ivyleaf morningglory (Ipomoea hederacea, IPOHE); experiment: as above
Summary of the method: as §1

[18] = system: johnsongrass (Sorghum halepense, SORHA); experiment: as above
Summary of the method: as §1

[19] = system: lambsquarters (Chenopodium album, CHEAL); experiment: as above
Summary of the method: as §1

[20] = system: large crabgrass (Digitaria sanguinalis, DIGSA); experiment: as above
Summary of the method: as §1

[21] = system: redroot pigweed (Amaranthus retroflexus, AMARE); experiment: as above
Summary of the method: as §1

[22] = system: sicklepod (Cassia obtusifolia, CASOB); experiment: as above
Summary of the method: as §1

[23] = system: velvetleaf (Abutilon theophrasti, ABUTH); experiment: as above
Summary of the method: as §1

[24] = system: field corn (Zea mays L., var. Dekalb 535, CORN); experiment: Post-emerge greenhouse screening, crop safety / corn selectivity (phytotoxicity rating)
Summary of the method: as §1

[25] = system: soybean (Glycine max L., var. Pella 86, SOY); experiment: Post-emerge greenhouse screening, crop safety (phytotoxicity rating)
Summary of the method: as §1

[26] = system: upland rice (Oryza sp., var.Tebonnet, RICE); experiment: as above
Summary of the method: as §1

SMILES: O=[N+]([O-])c1ccccc1Oc1cc(-c2nn3c(c2Cl)CCCC3)c(F)cc1Cl [Compound 6-19]
- ECHCG phytotoxicity rating (0-100 scale) ([1]; 250 g ai/ha): 50
- AMBEL phytotoxicity rating (0-100 scale) ([2]; 250 g ai/ha): 50
- SETVI phytotoxicity rating (0-100 scale) ([3]; 250 g ai/ha): 95
- IPOHE phytotoxicity rating (0-100 scale) ([4]; 250 g ai/ha): 0
- SORHA phytotoxicity rating (0-100 scale) ([5]; 250 g ai/ha): 65
- CHEAL phytotoxicity rating (0-100 scale) ([6]; 250 g ai/ha): 100
- DIGSA phytotoxicity rating (0-100 scale) ([7]; 250 g ai/ha): 90
- AMARE phytotoxicity rating (0-100 scale) ([8]; 250 g ai/ha): 100
- CASOB phytotoxicity rating (0-100 scale) ([9]; 250 g ai/ha): 75
- ABUTH phytotoxicity rating (0-100 scale) ([10]; 250 g ai/ha): 65
- CORN crop damage, phytotoxicity rating (0-100 scale) ([11]; 250 g ai/ha): 0
- SOY crop damage, phytotoxicity rating (0-100 scale) ([12]; 250 g ai/ha): 50
- RICE crop damage, phytotoxicity rating (0-100 scale) ([13]; 250 g ai/ha): 0
- ECHCG phytotoxicity rating (0-100 scale) ([14]; 250 g ai/ha): 60
- AMBEL phytotoxicity rating (0-100 scale) ([15]; 250 g ai/ha): 50
- SETVI phytotoxicity rating (0-100 scale) ([16]; 250 g ai/ha): 65
- IPOHE phytotoxicity rating (0-100 scale) ([17]; 250 g ai/ha): 100
- SORHA phytotoxicity rating (0-100 scale) ([18]; 250 g ai/ha): 50
- CHEAL phytotoxicity rating (0-100 scale) ([19]; 250 g ai/ha): 98
- DIGSA phytotoxicity rating (0-100 scale) ([20]; 250 g ai/ha): 50
- AMARE phytotoxicity rating (0-100 scale) ([21]; 250 g ai/ha): 100
- CASOB phytotoxicity rating (0-100 scale) ([22]; 250 g ai/ha): 75
- ABUTH phytotoxicity rating (0-100 scale) ([23]; 250 g ai/ha): 100
- CORN crop damage, phytotoxicity rating (0-100 scale) ([24]; 250 g ai/ha): 3
- SOY crop damage, phytotoxicity rating (0-100 scale) ([25]; 250 g ai/ha): 40
- RICE crop damage, phytotoxicity rating (0-100 scale) ([26]; 250 g ai/ha): 35

SMILES: Cn1c(=S)n(C)c(=O)n(-c2cc(Oc3ccccc3N)c(Cl)cc2F)c1=O [Compound 2-18]
- ECHCG phytotoxicity rating (0-100 scale) ([1]; 125 g ai/ha): 35
- ECHCG phytotoxicity rating (0-100 scale) ([1]; 250 g ai/ha): 60
- AMBEL phytotoxicity rating (0-100 scale) ([2]; 125 g ai/ha): 50
- AMBEL phytotoxicity rating (0-100 scale) ([2]; 250 g ai/ha): 55
- SETVI phytotoxicity rating (0-100 scale) ([3]; 125 g ai/ha): 60
- SETVI phytotoxicity rating (0-100 scale) ([3]; 250 g ai/ha): 95
- IPOHE phytotoxicity rating (0-100 scale) ([4]; 125 g ai/ha): 0
- IPOHE phytotoxicity rating (0-100 scale) ([4]; 250 g ai/ha): 10
- SORHA phytotoxicity rating (0-100 scale) ([5]; 125 g ai/ha): 35
- SORHA phytotoxicity rating (0-100 scale) ([5]; 250 g ai/ha): 75
- CHEAL phytotoxicity rating (0-100 scale) ([6]; 125 g ai/ha): 100
- CHEAL phytotoxicity rating (0-100 scale) ([6]; 250 g ai/ha): 100
- DIGSA phytotoxicity rating (0-100 scale) ([7]; 125 g ai/ha): 75
- DIGSA phytotoxicity rating (0-100 scale) ([7]; 250 g ai/ha): 80
- AMARE phytotoxicity rating (0-100 scale) ([8]; 125 g ai/ha): 99
- AMARE phytotoxicity rating (0-100 scale) ([8]; 250 g ai/ha): 100
- CASOB phytotoxicity rating (0-100 scale) ([9]; 125 g ai/ha): 20
- CASOB phytotoxicity rating (0-100 scale) ([9]; 250 g ai/ha): 35
- ABUTH phytotoxicity rating (0-100 scale) ([10]; 125 g ai/ha): 55
- ABUTH phytotoxicity rating (0-100 scale) ([10]; 250 g ai/ha): 60
- CORN crop damage, phytotoxicity rating (0-100 scale) ([11]; 125 g ai/ha): 0
- CORN crop damage, phytotoxicity rating (0-100 scale) ([11]; 250 g ai/ha): 5
- SOY crop damage, phytotoxicity rating (0-100 scale) ([12]; 125 g ai/ha): 0
- SOY crop damage, phytotoxicity rating (0-100 scale) ([12]; 250 g ai/ha): 0
- RICE crop damage, phytotoxicity rating (0-100 scale) ([13]; 125 g ai/ha): 0
- RICE crop damage, phytotoxicity rating (0-100 scale) ([13]; 250 g ai/ha): 0
- ECHCG phytotoxicity rating (0-100 scale) ([14]; 125 g ai/ha): 0
- ECHCG phytotoxicity rating (0-100 scale) ([14]; 250 g ai/ha): 35
- AMBEL phytotoxicity rating (0-100 scale) ([15]; 125 g ai/ha): 0
- AMBEL phytotoxicity rating (0-100 scale) ([15]; 250 g ai/ha): 0
- SETVI phytotoxicity rating (0-100 scale) ([16]; 125 g ai/ha): 50
- SETVI phytotoxicity rating (0-100 scale) ([16]; 250 g ai/ha): 50
- IPOHE phytotoxicity rating (0-100 scale) ([17]; 125 g ai/ha): 0
- IPOHE phytotoxicity rating (0-100 scale) ([17]; 250 g ai/ha): 0
- SORHA phytotoxicity rating (0-100 scale) ([18]; 125 g ai/ha): 0
- SORHA phytotoxicity rating (0-100 scale) ([18]; 250 g ai/ha): 0
- CHEAL phytotoxicity rating (0-100 scale) ([19]; 125 g ai/ha): 70
- CHEAL phytotoxicity rating (0-100 scale) ([19]; 250 g ai/ha): 70
- DIGSA phytotoxicity rating (0-100 scale) ([20]; 125 g ai/ha): 0
- DIGSA phytotoxicity rating (0-100 scale) ([20]; 250 g ai/ha): 0
- AMARE phytotoxicity rating (0-100 scale) ([21]; 125 g ai/ha): 80
- AMARE phytotoxicity rating (0-100 scale) ([21]; 250 g ai/ha): 80
- CASOB phytotoxicity rating (0-100 scale) ([22]; 125 g ai/ha): 0
- CASOB phytotoxicity rating (0-100 scale) ([22]; 250 g ai/ha): 0
- ABUTH phytotoxicity rating (0-100 scale) ([23]; 125 g ai/ha): 0
- ABUTH phytotoxicity rating (0-100 scale) ([23]; 250 g ai/ha): 40
- CORN crop damage, phytotoxicity rating (0-100 scale) ([24]; 125 g ai/ha): 0
- CORN crop damage, phytotoxicity rating (0-100 scale) ([24]; 250 g ai/ha): 0
- SOY crop damage, phytotoxicity rating (0-100 scale) ([25]; 125 g ai/ha): 0
- SOY crop damage, phytotoxicity rating (0-100 scale) ([25]; 250 g ai/ha): 0
- RICE crop damage, phytotoxicity rating (0-100 scale) ([26]; 125 g ai/ha): 0
- RICE crop damage, phytotoxicity rating (0-100 scale) ([26]; 250 g ai/ha): 0
